In experiment [1] the test system is human non-small cell lung cancer (Calu-6). The experiment in a line: Example 3: dose dependency of FK330 in enhancing paclitaxel in Calu-6 tumor-bearing mice. It is filed as in vivo, nude mice. The conditions noted are these: Day 59; for tumor volume at the end of the study: mean±SEM. The procedure:
Preparation of the test substances and conditioning of the cells were carried out in the same manner as in Example 2.
Five-week old male nude mice (CAnN Cg-Foxn1nu/CrlCrlj(nu/nu)) were purchased from Charles River Laboratories Japan, Inc. (Japan, Kanagawa). The animals were raised under specific pathogen-free (SPF) conditions throughout the test period by feeding standard feedstuff and drinking water. The cultured cells were subcutaneously inoculated into the dorsal region of the nude mice at a concentration of 3×10^6 cells/0.1 mL/mouse. Nude mice which had the tumor volumes (major axis×[minor axis]^2×0.52) ranging from 123.3 mm^3 to 274.4 mm^3 were assigned by using SAS to minimize the fluctuation in the tumor volume between the groups and within the group.
The first day of administration was designated as Day 0, and observation was made until Day 59. The respective groups (n=5) were treated as follows. FK330 was orally gavaged in an amount of 5 mL/kg, and paclitaxel was administered intravenously through the tail vein in an amount of 10 mL/kg. Paclitaxel was continuously administered from Day 0 to Day 5, and then was withdrawn for 21 days. This was defined as one cycle, and administration was carried out up to two cycles.
Paclitaxel single administration group: Paclitaxel 10 mg/kg/day (continuously administered for six days from Day 0 in Cycle 1, and continuously administered for 6 days from Day 27 in Cycle 2)
FK330 30 mg/kg bid (60 mg/kg/day)+paclitaxel 10 mg/kg/day (continuously administered for 6 days from Day 0 in Cycle 1, and continuously administered for 6 days from Day 27 in Cycle 2)
FK330 60 mg/kg bid (120 mg/kg/day)+paclitaxel 10 mg/kg/day (continuously administered for 6 days from Day 0 in Cycle 1, and continuously administered for 6 days from Day 27 in Cycle 2)
FK330 100 mg/kg bid (200 mg/kg/day)+paclitaxel 10 mg/kg/day (continuously administered for 6 days from Day 0 in Cycle 1, and continuously administered for 6 days from Day 27 in Cycle 2)
FK330 was orally gavaged (5 mL/kg) twice a day at an interval of 6 to 8 hours. Paclitaxel was administered by intravenous bolus injection (10 mL/kg) through the tail vein 2 to 4 hours after the administration of FK330.
(§1) Every 2 to 4 days, the body weight and the tumor diameters, determined by using a digital caliper, were measured. The tumor volume was calculated from the calculation formula for ellipsoid volume of (major axis×[minor axis]^2×0.52).

For experiment [2], the system named is human gastric cancer (MKN-28). Put plainly: Example 5: FK330 with paclitaxel in MKN-28 tumor-bearing mice. Format: in vivo, nude mice. The conditions noted are these: for tumor volume on the last day of experiment: MKN-28, Day 84, mean±SEM. The procedure:
Preparation of the test substances was carried out in the same manner as in Example 2.
Human gastric cancer-derived NCI-N87 (CRL-5822) was obtained from American Type Culture Collection (VA, USA), MKN-28 (JCRB0253) was obtained from Health Science Research Resources Bank (HSRRB), and AZ-521 (RCB2087) was obtained from Riken BRC. NCI-N87 and MKN-28 cells were cultured under the conditions of 37° C. and 5% CO2 by using RPMI1640 medium containing 10% heat-inactivated fetal bovine serum (FBS), and AZ-521 cells were cultured under the conditions of 37° C. and 5% CO2 by using DMEM medium containing 10% heat-inactivated FBS. The cells were harvested with trypsin and were suspended in PBS at 6×10^7 cells/mL, and the suspension was mixed with an equal amount of Matrigel (trade name) Basement Membrane Matrix (manufactured by Becton Dickinson Co., Bedford, Mass., USA).
Five-week old male nude mice (CAnN Cg-Foxn1nu/CrlCrlj(nu/nu)) were purchased from Charles River Laboratories Japan, Inc. (Japan, Kanagawa). The animals were raised under specific pathogen-free (SPF) conditions throughout the test period by feeding standard feedstuff and drinking water. The cultured cells were subcutaneously inoculated into the dorsal region of the nude mice at a concentration of 3×10^6 cells/0.1 mL/mouse. […]
as §1
The results are expressed as the mean value (Mean)±standard error (SEM). Using the actual measured values of the tumor volume at each measurement time point, an unpaired statistical test (Student's t-test) of the difference between two groups was carried out between a single administration group and a combined use group. […]

These results are taken from patent US20140066385A1, “METHOD FOR TREATING CANCER BY COMBINED USE OF DRUGS” (Astellas Pharma Inc., priority 2011, published 2014).

For the molecule `O=C(/C=C/c1ccc(Cl)cc1)N[C@@H](Cc1ccccn1)C(=O)NCC(=O)N1CCC(Oc2cc(C(F)(F)F)ncn2)CC1` [FK330, N^2-[(2E)-3-(4-chlorophenyl)-2-propenoyl]-N-[2-oxo-2-(4-{[6-(trifluoromethyl)pyrimidin-4-yl]oxy}piperidin-1-yl)ethyl]-3-pyridin-2-yl-L-alaninamide], the “tumor volume reduction ratio compared with the paclitaxel-only group” value came to 41.7% in experiment [1] (FK330 30 mg/kg bid + paclitaxel 10 mg/kg/day), 56.9% in experiment [1] (FK330 60 mg/kg bid + paclitaxel 10 mg/kg/day) and 81.8% in experiment [1] (FK330 100 mg/kg bid + paclitaxel 10 mg/kg/day). Besides, the “tumor volume at the end of the study” value in experiment [1] (FK330 30 mg/kg bid combined use group with paclitaxel 10 mg/kg/day) came out at 955.9±231.0 mm^3; in experiment [1] (FK330 60 mg/kg bid combined use group with paclitaxel 10 mg/kg/day), 706.2±256.1 mm^3; in experiment [1] (FK330 100 mg/kg bid combined use group with paclitaxel 10 mg/kg/day), 297.9±101.4 mm^3. Further, the “tumor volume on the last day of experiment” value in experiment [2] (combined use group paclitaxel + FK330 100 mg/kg bid) is given as 164.8±18.5 mm^3. In addition, in experiment [2] (MKN-28, last day, FK330 100 mg/kg bid + paclitaxel, P=0.08), the “tumor volume decrease compared with the paclitaxel-only group” value turned out to be 63.7%.
Regarding `CC(=O)O[C@H]1C(=O)[C@@]2(C)[C@H]([C@H](OC(=O)c3ccccc3)[C@]3(O)C[C@H](OC(=O)[C@H](O)[C@@H](NC(=O)c4ccccc4)c4ccccc4)C(C)=C1C3(C)C)[C@]1(OC(C)=O)CO[C@@H]1C[C@@H]2O` [paclitaxel, reference compound], the “tumor volume at the end of the study” value in experiment [1] (paclitaxel-only group, 10 mg/kg/day i.v., two cycles) is 1640.1±902.8 mm^3. Further, the “tumor volume on the last day of experiment” value in experiment [2] (paclitaxel-only group 10 mg/kg/day i.v., three cycles) came out at 454.1±147.5 mm^3.
